“And” between values parts separate entries of the source, which are not always exact repeats. Equal values may be shown once. “Also recorded” adds a separate entry of the source.
Assays:
[1] = test system: permeabilized human sperm; experiment: DTT (XEIM) pretreatment of permeabilized human sperm before HSAA; type: cell-based; details: 50 mM DTT in XEIM, 45 minutes on ice
Description: On the day that the diagnostic method is to be performed, the samples are incubated for 30 minutes at 37° C.; each sample is then suspended in 10 ml of nuclear isolation medium (NIM, 200 mM sucrose, 2.4 mM MgCl2, 10 mM Tris-Hcl and 5 mM maleic acid, pH 7.4). A sperm count is taken and an aliquot (containing 20 million sperm) is pelleted in a centrifuge for 10 minutes at 400×g, then resuspended in 10 ml of NIM containing 0.05% lysolecithin and 1 μg/ml soybean trypsin inhibitor. The mixture is kept at room temperature for 5 minutes and the sperm repelleted as before, then washed, first in NIM with 3% BSA and then with NIM containing 0.4% BSA, as described by Lohka and Masui^1. Sperm will finally be suspended in Xenopus Extract Isolation Medium (XEIM, 10 mM Tris-HCL, pH 7.5, 1.5 mM MgCl2, 100 mM KCl and 50 mM DTT) at a concentration of 25,000 sperm/μl and kept on ice (between 0° C. and 4° C.) for 45 minutes before mixing with the frog egg extract. […] Such may be the result of reducing the protamines that in mammalian sperm are cross-linked by intermolecular disulfide bonds.^67 […]

[2] = test system: male reproductive system; details: in vivo; cited from earlier work
[3] = test system: human sperm nuclei (chromatin decondensation); experiment: Human sperm activation assay (HSAA): chromatin decondensation of chemically treated, permeabilized human sperm in Xenopus laevis egg extract; type: cell-based; details: for effect on sperm chromatin decondensation, in words (SEGS): SEGS-treated human sperm in vitro; for effect on decondensation, in words (hydroxylamine alone): 5 μM hydroxylamine; for reversal of SEGS crosslinks / restoration of decondensation, in words: SEGS-treated sperm, then hydroxylamine
[4] = test system: human sperm nuclei; experiment: HSAA with frog egg extract ± aphidicolin (decondensation, recondensation, DNA synthesis of sperm nuclei); type: cell-based
Description: A HSAA will be set up using normal control sperm. After addition of the sperm to the egg extract containing BrdUrd (10 μM, 92) in place of ^3 H-TTP, aliquots will be taken at 15 minute time intervals throughout the 3 hours of the HSAA, with cytopreps made as previously described. However, instead of performing autoradiography, the BrdUrd staining protocol of Royere et al (1988)^131, which reference is specifically incorporated herein by reference for this purpose, will be used. The cytopreps will be fixed in cold methanol-acetic acid (3:1 v/v) followed by an RNase treatment.
The procedure requires that the DNA be partially denatured to expose incorporated BrdUrd to the specific antibody. The anti-BrdUrd antibodies that have been developed so far only bind BrdUrd in single-stranded DNA. The DNA-denaturing step will be done by placing the cytoprep slides in Copeland jars containing distilled water at 95° C. for 10 minutes. The slides will then be transferred into Copeland jars containing ice cold distilled water for 2 minutes and the sperm nuclei stained using anti-BrdUrd antibody (Boehringer Mannheim, mouse IgG) in PBS as the manufacturer's recommended dilution, followed by rhodamine-conjugated Goat anti-mouse IgG. The stained nuclei will be analyzed individually in our image analysis system.
Aphidicolin is described in Ikegami et al (1978)^101. This study will use sperm shown previously to respond normally in the HSAA.
Fluorescence intensities will be determined as previously described and plotted as fluorescence units above background fluorescence.
We will run a duplicate HSAA±aphidicolin (10 μg/ml), except minus tritiated thymidine triphosphate. After incubation, the sperm will be washed in PBS, fixed with 70% ethanol, centrifuged, and the fixative removed. The sperm will be resuspended in one volume of pretreatment solution (0.2M citric acid and 0.5% Tween 20) and incubated at RT for 20 minutes with gentle shaking. Subsequently, 9 volumes of the staining solution containing […] hydrogen phosphate and 5 μM 4', 6-diamidino-2-phenylindole (DAPI) will be added to raise the pH to ~7.0 and stain the DNA. The stained cells are stable for 24-48 hours, so can be shipped and/or transported by PI to Dr. Manimekalai's Laboratory where we will obtain flow cytometric histograms of the DNA content of the sperm nuclei. […] Estimated DNA synthesis for the sperm nuclei incubated in extract containing aphidicolin will be determined, and determine if it is in the 20-30% range (observed using the autoradiographic approach) when compared to the estimated DNA synthesis for the sperm nuclei incubated in extract without aphidicolin. […] Staining approaches that can be followed by quantitative flow cytometry include the use of Hoechst 33342 (64) and acridine orange (96).

[5] = test system: human sperm nuclei; details: extract containing aphidicolin; cited from earlier work
[6] = test system: DNA polymerase alpha; details: cited from earlier work
[7] = test system: rats; details: cited from earlier work

## O[C@H](CS)[C@H](O)CS (racemic) [DTT, Dithiothreitol]
[1]
  effect of pretreatment on decondensation and DNA synthesis events: enhance the decondensation and DNA synthesis "activation" events

## CS(=O)(=O)OCCCCOS(C)(=O)=O [Busulfan]
[2]
  male reproductive toxicity, in words: kills reserve and differentiating operamatogonia and reserve stem cell populations in the testis

## O=C(CCC(=O)ON1C(=O)CC(S(=O)(=O)O)C1=O)OCCOC(=O)CCC(=O)ON1C(=O)CC(S(=O)(=O)O)C1=O (stereo not drawn) [SEGS]
[3]; Homo sapiens, Sperm, 3.4 mM SEGS, read-out: sperm in which decondensation was prevented
  inhibition at 3400 µM: > 75%
[3]
  effect on sperm chromatin decondensation, in words (SEGS): abnormal decondensation responses; also recorded: abnormal chromatin decondensation; also recorded: did not decondense; also recorded: do not decondense
[3]; listed as SULFO-EGS
  effect on sperm chromatin decondensation, in words (SEGS): block decondensation
[3]; as low as, permeabilized sperm
  level to which decondensation is inhibited: 20 % of the control

## O=C(O)c1cc(/N=N/c2ccc(S(=O)(=O)Nc3ccccn3)cc2)ccc1O [Sulfasalazine]
[2]
  male reproductive toxicity, in words: reduced sperm count and fertilizing capability affected in treated patients

## C[C@@]1(CO)[C@H](O)CC[C@@]2(C)[C@H]1CC[C@H]1C[C@@H]3C[C@@]12CC[C@]3(O)CO [aphidicolin]
[4]; aphidicolin 10 μg/ml, 2 hours, autoradiography
  % labelled nuclei in extract containing aphidicolin / % labelled nuclei without aphidicolin × 100, expected: 20-30%
[4]; extract containing aphidicolin
  DNA synthesis: blocked
  decondensation of sperm nuclei: normal
  recondensation of sperm nuclei: normal
[5]
  DNA synthesis (previously demonstrated, ref. 17): blocked
  decondensation of sperm nuclei (previously demonstrated, ref. 17): normal
  recondensation of sperm nuclei (previously demonstrated, ref. 17): normal
[6]
  inhibition of DNA polymerase alpha: known inhibitor of DNA polymerase alpha

## O=P1(N(CCCl)CCCl)NCCCO1 (stereo not drawn) [cyclophosphamide]
[7]
  effect on pre- and postimplantation loss: increasing pre- and postimplantation loss
[7]; six weeks treatment
  decondensation of sperm from treated rats: do not decondense

## NO [hydroxylamine]
[3]
  effect on decondensation, in words (hydroxylamine alone): normal decondensation; also recorded: no effect on decondensation
  reversal of SEGS crosslinks / restoration of decondensation, in words: restored, normal decondensation; also recorded: able to remove the crosslinker; also recorded: able to reverse most of the crosslinks; also recorded: reversed the damage
[3]; 5 μM hydroxylamine 5 hours, pH 8.5, 15 minutes in the extract
  sperm decondensed, hydroxylamine given alone: 92.0±2.8%
[3]; listed as Hydroxylamine
  effect on decondensation, in words (hydroxylamine alone): no effect
  reversal of SEGS crosslinks / restoration of decondensation, in words: restore normal decondensation
[3]; 3.4 mM SEGS 30 min, then 5 μM hydroxylamine 5 hours, 15 minutes in the extract
  sperm decondensed after crosslinking with SEGS and then treatment with hydroxylamine: 76% and 76.0±5.9%
[3]; hydroxylamine higher than 5 μM
  effect on decondensation, in words (higher hydroxylamine concentrations): adverse effect on decondensation

From patent US5770363A, “Methods for diagnosing human male infertility” (priority 1995, dated 1998)
